SMILES strings stand for the structures. Some results are limits rather than exact numbers.

In series [1] the target is 5-hydroxytryptamine receptor 2A (Homo sapiens, UniProt P28223). The experiment in a line: Compound was evaluated for binding affinity against 5-hydroxytryptamine 2A receptor using radioligand binding assay.
Series [2] concerns the target T1, Muscarinic acetylcholine receptor M1 (Homo sapiens, UniProt P11229).
T1 sequence (P11229 whole entry): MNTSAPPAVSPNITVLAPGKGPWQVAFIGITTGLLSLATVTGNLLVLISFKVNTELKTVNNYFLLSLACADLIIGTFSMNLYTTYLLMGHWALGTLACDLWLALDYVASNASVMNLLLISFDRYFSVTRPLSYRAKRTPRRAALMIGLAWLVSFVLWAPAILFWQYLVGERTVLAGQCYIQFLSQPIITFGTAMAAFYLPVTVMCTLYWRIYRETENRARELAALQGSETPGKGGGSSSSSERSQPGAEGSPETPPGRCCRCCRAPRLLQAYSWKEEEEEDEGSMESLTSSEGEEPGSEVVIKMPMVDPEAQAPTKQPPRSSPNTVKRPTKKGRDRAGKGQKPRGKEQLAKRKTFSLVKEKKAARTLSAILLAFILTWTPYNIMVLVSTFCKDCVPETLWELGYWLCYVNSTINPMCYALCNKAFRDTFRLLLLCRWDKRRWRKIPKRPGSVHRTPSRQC
The experiment in a line: Compound was evaluated for binding affinity against Muscarinic M1 receptor using radioligand binding assay.

A short description of series [3]: Compound was tested for its half-life period at an intravenous dose of 3 ug/kg. In kind it is ADME, organism-based, Sus scrofa. As to conditions: pig, in vivo, 0.003 mg/kg.
Series [4] has as its target T2, Alpha-2A adrenergic receptor (Homo sapiens, UniProt P08913).
T2 sequence (P08913 whole entry): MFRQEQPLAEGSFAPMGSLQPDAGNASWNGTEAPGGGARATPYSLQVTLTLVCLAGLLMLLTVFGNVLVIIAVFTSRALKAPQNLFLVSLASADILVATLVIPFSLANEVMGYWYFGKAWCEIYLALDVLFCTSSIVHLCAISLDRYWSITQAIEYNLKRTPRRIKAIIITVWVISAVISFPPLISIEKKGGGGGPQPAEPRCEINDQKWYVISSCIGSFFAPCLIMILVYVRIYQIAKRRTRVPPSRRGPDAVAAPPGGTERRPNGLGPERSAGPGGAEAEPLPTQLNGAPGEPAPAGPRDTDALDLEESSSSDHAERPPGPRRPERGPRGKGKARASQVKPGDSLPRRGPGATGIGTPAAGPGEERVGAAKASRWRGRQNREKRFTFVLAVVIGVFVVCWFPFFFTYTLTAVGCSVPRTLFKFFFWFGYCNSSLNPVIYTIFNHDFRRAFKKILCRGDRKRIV
The experiment in a line: Compound was evaluated for binding affinity against Alpha-2A adrenergic receptor using radioligand binding assay.

Another series addresses D(1A) dopamine receptor (Homo sapiens, UniProt P21728). The experiment in a line: Compound was evaluated for binding affinity against Dopamine D1 receptor using radioligand binding assay.
In series [5] the target is T3, Alpha-1A adrenergic receptor (Homo sapiens, UniProt P35348).
T3 sequence (P35348 whole entry): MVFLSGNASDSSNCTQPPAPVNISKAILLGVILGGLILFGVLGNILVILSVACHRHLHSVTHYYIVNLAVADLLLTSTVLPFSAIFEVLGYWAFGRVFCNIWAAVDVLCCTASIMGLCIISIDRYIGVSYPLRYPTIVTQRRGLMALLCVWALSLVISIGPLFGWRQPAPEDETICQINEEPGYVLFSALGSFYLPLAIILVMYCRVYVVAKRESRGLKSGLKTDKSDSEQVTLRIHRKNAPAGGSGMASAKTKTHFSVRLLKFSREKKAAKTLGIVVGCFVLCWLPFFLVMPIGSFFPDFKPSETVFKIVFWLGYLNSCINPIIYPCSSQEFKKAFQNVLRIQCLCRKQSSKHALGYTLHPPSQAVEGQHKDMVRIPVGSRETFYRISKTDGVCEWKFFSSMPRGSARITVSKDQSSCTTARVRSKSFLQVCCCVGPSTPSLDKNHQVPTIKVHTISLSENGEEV
The series is described as follows: Compound was evaluated for binding affinity against Alpha-1C adrenergic receptor using radioligand binding assay.

Series [6] has as its target 5-hydroxytryptamine receptor 4 (Cavia porcellus, UniProt O70528). The series is described as follows: Compound was evaluated for binding affinity against 5-hydroxytryptamine 4 receptor using radioligand binding assay using [3H]GR as radioligand.
A further series has as its target D(2) dopamine receptor (Homo sapiens, UniProt P14416). The series is described as follows: Compound was evaluated for binding affinity against Dopamine D2 receptor using radioligand binding assay.
The target of series [7] is T4, Type-1 angiotensin II receptor (Homo sapiens, UniProt P30556).
T4 sequence (P30556 whole entry): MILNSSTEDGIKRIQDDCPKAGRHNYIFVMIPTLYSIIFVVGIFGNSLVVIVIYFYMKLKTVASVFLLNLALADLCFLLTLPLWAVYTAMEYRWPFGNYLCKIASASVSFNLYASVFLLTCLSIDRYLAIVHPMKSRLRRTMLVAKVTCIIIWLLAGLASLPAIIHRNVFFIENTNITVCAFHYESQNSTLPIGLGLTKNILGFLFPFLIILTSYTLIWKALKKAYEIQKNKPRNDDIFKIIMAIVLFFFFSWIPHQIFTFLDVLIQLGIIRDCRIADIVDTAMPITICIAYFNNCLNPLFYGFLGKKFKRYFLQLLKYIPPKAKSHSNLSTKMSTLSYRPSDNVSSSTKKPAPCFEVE
The experiment in a line: Compound was evaluated for binding affinity against Angiotensin II receptor, type 1 using radioligand binding assay.

Series [8] addresses Muscarinic acetylcholine receptor M3 (Homo sapiens, UniProt P20309). The series is described as follows: Compound was evaluated for binding affinity against Muscarinic M3 receptor using radioligand binding assay.
Another series relates to Sus scrofa. The series is described as follows: Antagonism of 5-HT-induced tachycardia in anesthetized, vagotomized Yucatan micropigs at 0.03-10 ug/kg dose administered intravenously. As to conditions: iv, read-out: ID50 (the source's name). Format: functional.

Chain of Muscarinic acetylcholine receptor M3 (P20309 whole entry): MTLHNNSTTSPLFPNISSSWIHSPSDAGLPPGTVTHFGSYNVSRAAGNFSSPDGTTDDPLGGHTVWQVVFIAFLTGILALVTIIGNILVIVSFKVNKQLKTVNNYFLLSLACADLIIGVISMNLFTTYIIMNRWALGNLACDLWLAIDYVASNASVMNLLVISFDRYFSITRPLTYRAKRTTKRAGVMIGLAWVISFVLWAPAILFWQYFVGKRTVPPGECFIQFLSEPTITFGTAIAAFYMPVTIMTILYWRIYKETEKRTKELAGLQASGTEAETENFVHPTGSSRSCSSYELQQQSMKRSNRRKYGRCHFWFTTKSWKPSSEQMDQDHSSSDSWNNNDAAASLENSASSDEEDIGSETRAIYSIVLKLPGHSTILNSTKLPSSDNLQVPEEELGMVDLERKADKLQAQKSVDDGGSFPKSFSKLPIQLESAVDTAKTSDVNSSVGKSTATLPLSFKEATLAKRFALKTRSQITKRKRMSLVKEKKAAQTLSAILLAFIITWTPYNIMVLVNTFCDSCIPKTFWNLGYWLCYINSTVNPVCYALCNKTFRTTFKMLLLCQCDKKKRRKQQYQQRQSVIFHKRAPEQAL
Chain of D(1A) dopamine receptor (P21728 whole entry): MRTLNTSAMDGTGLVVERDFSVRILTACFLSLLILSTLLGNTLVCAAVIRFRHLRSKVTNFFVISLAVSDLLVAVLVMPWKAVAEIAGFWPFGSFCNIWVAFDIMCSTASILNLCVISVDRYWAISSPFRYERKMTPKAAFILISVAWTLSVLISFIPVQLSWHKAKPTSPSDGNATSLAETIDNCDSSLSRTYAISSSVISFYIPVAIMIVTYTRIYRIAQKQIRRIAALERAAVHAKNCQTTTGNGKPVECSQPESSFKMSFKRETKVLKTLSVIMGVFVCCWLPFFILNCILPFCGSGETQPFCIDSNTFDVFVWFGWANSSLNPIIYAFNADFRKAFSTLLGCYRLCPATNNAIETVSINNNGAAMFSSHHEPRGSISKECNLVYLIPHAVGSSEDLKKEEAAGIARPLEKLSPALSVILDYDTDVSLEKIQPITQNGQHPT
Chain of D(2) dopamine receptor (P14416 whole entry): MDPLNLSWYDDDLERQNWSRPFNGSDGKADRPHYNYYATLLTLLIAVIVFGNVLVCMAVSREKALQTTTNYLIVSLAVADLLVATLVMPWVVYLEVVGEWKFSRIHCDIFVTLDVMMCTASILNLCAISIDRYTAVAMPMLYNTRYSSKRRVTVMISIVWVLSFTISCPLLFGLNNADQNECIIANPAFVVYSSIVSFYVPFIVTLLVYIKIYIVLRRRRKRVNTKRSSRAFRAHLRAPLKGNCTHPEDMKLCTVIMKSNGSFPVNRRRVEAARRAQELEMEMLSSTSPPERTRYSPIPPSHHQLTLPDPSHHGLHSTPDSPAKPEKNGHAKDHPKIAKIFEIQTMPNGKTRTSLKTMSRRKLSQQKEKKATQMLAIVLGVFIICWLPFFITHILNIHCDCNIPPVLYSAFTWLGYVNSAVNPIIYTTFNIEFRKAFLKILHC
Chain of 5-hydroxytryptamine receptor 4 (O70528 whole entry): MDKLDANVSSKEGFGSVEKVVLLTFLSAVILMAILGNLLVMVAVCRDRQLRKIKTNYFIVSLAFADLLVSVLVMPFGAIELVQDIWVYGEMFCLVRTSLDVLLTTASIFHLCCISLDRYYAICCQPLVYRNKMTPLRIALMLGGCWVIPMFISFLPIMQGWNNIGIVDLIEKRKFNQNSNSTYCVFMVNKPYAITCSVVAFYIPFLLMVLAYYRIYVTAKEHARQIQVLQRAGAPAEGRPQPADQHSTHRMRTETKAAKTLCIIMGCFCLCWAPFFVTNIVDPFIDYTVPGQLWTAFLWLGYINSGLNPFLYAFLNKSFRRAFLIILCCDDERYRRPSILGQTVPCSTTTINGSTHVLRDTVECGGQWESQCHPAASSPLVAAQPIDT
Chain of 5-hydroxytryptamine receptor 2A (P28223 whole entry): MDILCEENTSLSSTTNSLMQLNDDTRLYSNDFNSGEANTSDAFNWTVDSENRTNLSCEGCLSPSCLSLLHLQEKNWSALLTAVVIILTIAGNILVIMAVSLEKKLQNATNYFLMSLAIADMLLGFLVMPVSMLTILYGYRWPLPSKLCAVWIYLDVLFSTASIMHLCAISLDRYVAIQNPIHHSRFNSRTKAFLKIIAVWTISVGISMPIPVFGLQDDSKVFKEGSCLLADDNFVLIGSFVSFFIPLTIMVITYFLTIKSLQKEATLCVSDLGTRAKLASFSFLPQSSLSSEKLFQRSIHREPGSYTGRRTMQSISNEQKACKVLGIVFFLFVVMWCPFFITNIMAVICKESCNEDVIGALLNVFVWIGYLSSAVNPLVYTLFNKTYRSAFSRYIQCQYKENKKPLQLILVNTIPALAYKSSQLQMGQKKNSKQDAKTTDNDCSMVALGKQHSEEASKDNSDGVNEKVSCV

As a reminder, the Ki is a measure of affinity in units of concentration, obtained from inhibition or displacement. High values mean a looser hold on the target, low ones a stronger hold on the target. As a reminder, the half-life is the time in which the quantity being followed falls by half. A higher half-life goes with slow decline. In the case of `COc1ccc(CCCN2CCC(CCC(=O)c3cc(Cl)c(N)c4c3OCCO4)CC2)cc1OC`, the Ki in [1] is 501 nM; in series [2] it was 1580 nM; in series [4] it was 100 nM; on D(1A) dopamine receptor, greater than 10000 nM; in series [5], 316 nM; in [6] it was 0.1 nM. The Ki on D(2) dopamine receptor is 316 nM; in [7], greater than 10000 nM; in [8], 2000 nM. In series [3], this compound displayed a half-life greater than 6 h. Further, the ED50 in the series with Sus scrofa turned out to be 0.55 µg/kg.

Source of the values: ChEMBL document CHEMBL1153669, “Rs-100235: A high affinity 5-HT4 receptor antagonist” (Bioorg Med Chem Lett, 1995).
